Data published in patent US4954347A (priority 1988, dated 1990).
Entries after “also recorded” stand apart in the source; their conditions may differ. Where a name gives a salt, the structure may show the parent alone. Read-outs that look alike come from different tables or passages of the source.

Legend:
[1] = tested on: fast inward sodium channels; conditions: hydrochloride; cited from earlier work
beta-adrenergic = conditions: cited from earlier work
calcium = conditions: cited from earlier work
[2] = tested on: supraventricular and ventricular arrhythmias; conditions: in vivo; hydrochloride; cited from earlier work
[3] = one patient; quinidine concomitantly with propafenone
[4] = tested on: electrically induced arrhythmias, ventricular tachycardias, circus-movement flutter; conditions: experimental animals; cited from earlier work
[5] = human, in vivo; cited from earlier work

**Q.** With `CCCNCC(O)COc1ccccc1C(=O)CCc1ccccc1` (centres unmarked) [propafenone, 2'-[3-(prophylamino)-2-(hydroxy)-(propoxy)-3-phenylpropiophenone hydrochloride] as the compound, how does the “blockade of fast sodium channels” value [1] read?
**A.** blocks fast inward sodium channels; also recorded: blockade of the fast sodium channel

**Q.** What about the beta-blocking activity (beta-adrenergic; hydrochloride) of the same compound?
**A.** only a weak beta-blocker

**Q.** What about the calcium antagonist activity (calcium) of the same compound?
**A.** weak calcium antagonist activity

**Q.** And the “suppression of supraventricular and ventricular arrhythmias” value [2]?
**A.** effective against recurrent supraventricular and ventricular arrhythmias; also recorded: effective in suppressing both supraventricular and ventricular arrhythmias

**Q.** Which results are given for `C=C[C@H]1C[N@@]2CC[C@H]1C[C@@H]2[C@@H](O)c1ccnc2ccc(OC)cc12` [quinidine]?
**A.** effect on the blood levels of propafenone [3]: very pronounced effect; "late" ventricular tachycardias following coronary artery occlusion [4]: prevent or terminate; circus-movement flutter [4]: terminate or prevent; threshold for electrically induced arrhythmias [4]: raise the threshold

**Q.** Which results are given for `COCCc1ccc(OCC(O)CNC(C)C)cc1` (centres unmarked) [metoprolol]?
**A.** beta-blocking activity (beta-adrenergic): primarily a beta-adrenergic blocking agent; half-life [5]: 3 to 7 h; systemic bioavailability [5]: 40-50%
